Data set [1] has as its system MCF-7 cells. The settings on record: 50 µM.
Description: (§1) MCF-7 cells were cultured in Dulbecco's Modified Eagle Medium/Nutrient Mixture F-12 (DMEM/F-12) (Gibco, New York, USA), which was supplemented with 10 % fetal bovine serum (FBS) (Gibco, New York, USA) and 1 % Penicillin-Streptomycin (P/S) (Gibco, New York, USA). MDA-MB-231 cells were cultured in DMEM high glucose (Gibco, New York, USA), supplemented with 10 % FBS and 1 % P/S.
(§2) MCF-7 cells were cultured in DMEM/F-12, while MDA-MB-231 cells were maintained in high-glucose DMEM. Both media were supplemented with 10 % foetal bovine serum (FBS) and 1 % penicillin/streptomycin (P/S). Cells were incubated for 24 h at 37 °C in a humidified atmosphere with 5 % CO2. […] Doxorubicin was used as a positive control. Following compound treatment, cells were incubated for 72 h under standard culture conditions. After treatment, the medium was replaced with serum-free medium containing 0.5 mg mL^-1 of 3-(4,5-dimethylthiazol-2-yl)-2,5-diphenyltetrazolium bromide (MTT), and cells were incubated for an additional 3 h. The MTT solution was then removed, and dimethyl sulfoxide (DMSO) was added to solubilize the formazan crystals. Absorbance was measured at 595 nm using a Microplate Spectrophotometer MR-850 BioPlate Reader (Biometrics Technologies, Wilmington, DE, USA). Compounds that reduced cell viability to ≤20 % compared to untreated controls were identified as hits for subsequent dose-response analysis. […] Treated cells were incubated for 72 h, followed by an MTT assay as described above. The absorbance at 595 nm was recorded, and IC50 values were determined using GraphPad Prism 9 (GraphPad Software, San Diego, CA, USA).
The test system of data set [2] is MDA-MB-231 cells. The settings on record: 50 µM.
Description: as §1, §2
Data set [3] relates to MCF-7 cells. The experiment in a line: Primary screening, MTT cell viability, MCF-7. The settings on record: for viability at 50 µM: Homo sapiens, MCF7, 72 h, read-out: MCF-7 cell viability, %, 50 μM, 72 h, MTT; for inhibition of viability of MCF-7 cells: primary single-concentration screening.
Description: as §1, §2
The test system of data set [4] is MDA-MB-231 cells. The data set can be described thus: Primary screening, MTT cell viability, MDA-MB-231. The settings on record: for viability at 50 µM: Homo sapiens, MDA-MB-231, 72 h, read-out: MDA-MB-231 cell viability, %, 50 μM, 72 h, MTT.
Description: as §1, §2
Data set [5] relates to MCF-7 cells. The experiment in a line: Secondary screening (dose-response), MTT assay, MCF-7. The class given is cell-based, human. The settings on record: read-out: IC50 MCF-7.
Description: as §1, §2
The test system of data set [6] is MDA-MB-231 cells. The experiment in a line: Secondary screening (dose-response), MTT assay, MDA-MB-231. The class given is cell-based, human. The settings on record: read-out: IC50 MDA-MB-231. Background: Tetrazolium assays rely on reduction of a dye to a coloured formazan, in cell work by metabolically active cells.
Description: as §1, §2
Another data set deals with HepG2 cells. The settings on record: for SI (CC50/IC50) HepG2: MDA-MB-231: ratio of CC50 in HepG2 to IC50 in MDA-MB-231; for SI (CC50/IC50) HepG2: MCF-7: ratio of CC50 in HepG2 to IC50 in MCF-7.
A short description of the next data set: in vitro. The settings on record: human, HepG2 cells.

Read-outs that look alike come from different tables or passages of the source. Bounds are passed on as bounds.

Description for HepG2 cells: (§3) The human liver cells (HepG2 cells) were seeded into a 96-well plate at a cell density of 10^4 cells/well and were incubated with DMEM/F-12 with 10 % FBS and 1 % P/S for 24 hours in an incubator (37 °C and 5 % CO2). […] Then, they were additionally incubated for 72 hours. After 72 hours of incubation, the culture media containing the compounds were removed, and serum-free media containing MTT was added instead, with an additional 3 hours of incubation at 37 °C and 5 % CO2. After 3 hours of incubation, the MTT-containing media was removed and DMSO was added to the assay plates, resulting in different shades of purple colour measured by Microplate Spectrophotometer MR-850 BioPlate Reader. The calculation of CC50 was analysed by using GraphPad Prism 9.
Description for in vitro: as §3

With 3,6-phenanthrenedione [Compound 5], the “MCF-7 cell viability, %” value in the data set on MCF-7 cells [1] was found to be 75.58 ± 4.26%. Further, the “MDA-MB-231 cell viability, %” value in the data set on MDA-MB-231 cells [2] came out at 68.01 ± 3.88%.

For the compound `C=C[C@@]1(C)C[C@H]2C[C@H](O)[C@]3(O)[C@@H](CCCC3(C)C)[C@]2(C)CC1=O` [Compound 2, glomerulatusin], the viability – broadly, the share of living cells, or the viability signal relative to a control – at 50 µM in the data set with MCF-7 cells [3] (mean ± SEM) came out at 77.7 ± 4.87%; with MDA-MB-231 cells [4] (mean ± SEM), 56.3 ± 2.17%.

Take `C[C@H]1C(=O)CC[C@@H]2[C@]1(C)CC[C@H]1[C@@]2(C)CC[C@@]2(C)[C@@H]3CC(C)(C)CC[C@]3(C)CC[C@]12C` [Compound 3, friedelin]: the viability at 50 µM with MCF-7 cells [3] (mean ± SEM) was determined as 79.2 ± 4.29%; in the data set with MDA-MB-231 cells [4] (mean ± SEM), 68.1 ± 2.96%.

As to `CC1(C)C(=O)C=C[C@]2(C)[C@@H]1CC[C@@]13C[C@@H](CC[C@H]12)C(O)(CO)C3` (stereo partly drawn) [Compound 4, anomaluone], the viability at 50 µM in the data set with MCF-7 cells [3] (mean ± SEM) is 72.7 ± 4.68%; with MDA-MB-231 cells [4] (mean ± SEM) it was 53.8 ± 1.88%.

As for `O=C1C[C@@H](c2ccccc2)Oc2cc(O)cc(O)c21` [Compound 6, pinocembrin], the viability at 50 µM in the data set on MCF-7 cells [3] (mean ± SEM) is 95.6 ± 2.96%; in the data set on MDA-MB-231 cells [4] (mean ± SEM), 74.4 ± 2.32%.

Take `COc1cc(O)c2c(c1)O[C@H](c1ccccc1)CC2=O` [Compound 7, pinostrobin]: the viability at 50 µM with MCF-7 cells [3] (mean ± SEM) was 88.5 ± 4.12%; in the data set on MDA-MB-231 cells [4] (mean ± SEM), 61.6 ± 3.69%.

In the case of `COc1cc(-c2cc(=O)c3c(O)c(OC)c(OC)cc3o2)cc(OC)c1OC` [Compound 8, 5-hydroxy-6,7,3',4',5'-pentamethoxyflavone], the viability at 50 µM in the data set on MCF-7 cells [3] (mean ± SEM) was determined as 63.1 ± 1.83%; in the data set with MDA-MB-231 cells [4] (mean ± SEM), 44.7 ± 1.93%.

Take `O=c1cc(-c2ccccc2)oc2cc(O)cc(O)c12` [Compound 9, chrysin]: the results for the viability at 50 µM in the data set with MCF-7 cells [3] (mean ± SEM) and in the data set with MDA-MB-231 cells [4] (mean ± SEM) were 76.7 ± 3.4% and 64.5 ± 1.19%, respectively.

On to `COc1cc2c(O[C@@H]3OC[C@@H](OC)[C@H](OC)[C@H]3O)c3c(c(-c4ccc5c(c4)OCO5)c2cc1OC)C(=O)OC3` [Compound 10, cleistanthin A], for which the IC50 (in general, the concentration that inhibits the measured activity by half) in the data set on MCF-7 cells [5] (Homo sapiens, MCF7, 72 h) came out at 0.54 µM; with MDA-MB-231 cells [6] (Homo sapiens, MDA-MB-231, 72 h) it was 0.02 µM. The “SI (CC50/IC50) HepG2: MDA-MB-231” value is 268.50 with HepG2 cells and above 100 in the data set on HepG2 cells (listed as cleistanthin A). In the data set “in vitro”, the cytotoxic concentration (CC50) (in general, the concentration that lowers cell viability or growth by half) at 72 h came to 5.37 µM. Besides, the viability at 50 µM with MCF-7 cells [3] (mean ± SEM) was 1.72 ± 0.23%; in the data set on MDA-MB-231 cells [4] (mean ± SEM) it was 8.85 ± 0.73%. In addition, the “inhibition of viability of MCF-7 cells” value with MCF-7 cells [3] (50 μM, 72 h) is reported as “more than 80%”. Besides, the “inhibition of viability of MDA-MB-231 cells” value in the data set on MDA-MB-231 cells [4] (primary single-concentration screening, 50 μM, 72 h) is listed as “more than 80%”.

For the compound `CC(=O)c1ccc(O)cc1` [Compound 11, 4-hydroxyacetophenone], the viability at 50 µM stood at 85.2 ± 4.2% in the data set on MCF-7 cells [3] (mean ± SEM) and 50.2 ± 2.73% with MDA-MB-231 cells [4] (mean ± SEM).

`COc1cccc2c1C(=O)c1c(O)c3c(c(O)c1C2=O)C[C@@](O)(C(=O)CO)C[C@@H]3O[C@H]1C[C@H](N)[C@H](O)[C@H](C)O1` [Doxorubicin, reference compound]: the IC50 with MCF-7 cells [5] (Homo sapiens, MCF7, 72 h, MTT, mean ± SD) came out at 0.66 µM; in the data set with MDA-MB-231 cells [6] (Homo sapiens, MDA-MB-231, 72 h, MTT, mean ± SD) it was 0.98 µM. Besides, the entries for the “SI (CC50/IC50) HepG2: MCF-7” value in the data set with HepG2 cells (listed as DoxorubICin) and in the data set with HepG2 cells (listed as doxorubicin) were 0.83 and “below 1”, respectively. For the same compound, the “SI (CC50/IC50) HepG2: MDA-MB-231” value with HepG2 cells (listed as DoxorubICin) is 0.56; with HepG2 cells (listed as doxorubicin), “below 1”. In the data set “in vitro”, this compound returned a CC50 at 72 h of 0.55 µM. Moreover, the viability at 50 µM in the data set with MCF-7 cells [3] (mean ± SEM) came to 4.02 ± 0.24%; in the data set with MDA-MB-231 cells [4] (mean ± SEM), 4.72 ± 1.07%.

For the compound “(3,4,5)-trihydroxy-6-methoxy-2,7-bis(3-methylbut-2-en-1-yl)-9H-xanthen-9-one [Compound 1]”, the IC50 in the data set with MCF-7 cells [5] (72 h, MTT, mean ± SD) came out at 28.3 µM; in the data set on MDA-MB-231 cells [6] (72 h, MTT, mean ± SD) it was 34.2 µM. Also, the cytotoxic concentration (CC50) in the data set on HepG2 cells (read-out: CC50 HepG2, 72 h, MTT) was found to be 32.8 µM. Besides, the “MCF-7 cell viability, %” value in the data set with MCF-7 cells [3] (50 μM, 72 h, MTT, mean ± SEM) is listed as 1.60 ± 0.10%. Besides, the “inhibition of viability of MCF-7 cells” value in the data set with MCF-7 cells [3] (50 μM, 72 h) is reported as “more than 80%”. Further, the “MDA-MB-231 cell viability, %” value in the data set with MDA-MB-231 cells [4] (50 μM, 72 h, MTT, mean ± SEM) is 59.00 ± 3.33%.

The values above are taken from paper PMC12662241, “New xanthone and chemical constituents from the aerial parts of Mallotus glomerulatus and their cytotoxicity in MCF-7 and MDA-MB-231 breast cancer cells” (ADMET & DMPK, 2025).
